Legend:
Format in all cases: cell-based, Escherichia coli
E. coli BL21(DE3)pLysS = assay: Cell density of E. coli in media with ferulic acid, strain without SULT1A1 (Example 4); details: after 17 h at 37° C., inoculated at OD600 0.002
Procedure: (§1) The two strains BL21(DE3)pLysS and the strain carrying SULT1A1 were grown in M9 minimal media with 0.2% glucose, appropriate antibiotics for maintenance of the plasmids, and 0.1 mM IPTG for induction of expression of the sulfotransferase. We added ferulic acid to final concentration of either 2.5 mM or 5 mM (ferulic acid was dissolved in ethanol, which reached a final concentration of 2% in the media). Ferulic acid is a growth inhibitory compound found in lignocellulotic biomass hydrolysate. Cells were inoculated into the medium to an optical density at 600 nm (OD600) of 0.002 in a 1 cm light path. […] Presence of an aryl sulfotransferase removes the inhibition caused by ferulic acid.

[1] = system: E. coli BL21(DE3)pLysS carrying SULT1A1; assay: Cell density of E. coli in media with ferulic acid, strain carrying SULT1A1 Homo sapiens (Example 4); details: after 17 h at 37° C., inoculated at OD600 0.002
Excerpt: SULT1A1 from Homo sapiens (SEQ ID NO: 2) mentioned in example 1 was cloned into the plasmid vector pET-28a(+) (Novagen, Life Technologies) as follows: The gene encoding the SULT1A1 was codon optimized for expression in E. coli by GeneArt (LifeTechnologies) and synthesized such that the start codon is an Ncol restriction site. The stop codon is immediately followed by a SalI site. The Ncol and SalI fragment of this DNA piece was cloned into the pET-28a(+) digested with Ncol and SalI using T4 DNA ligase. The resulting plasmid was transformed into E. coli BL21(DE3)pLysS (Life Technologies) selecting for resistance to […] kanamycin.
as §1

E. coli MG1655 = assay: Toxicity of unsulfated or sulfated product: growth rate of E. coli MG1655 (Example 3, FIG. 5); details: M9 0.2% glucose, pH 7, 37° C.; pHCA 10-40 mM, zosteric acid 20 or 40 mM
Excerpt: All media preparations had been adjusted to pH 7. […] Filled squares represent growth rates in media with pHCA.

Row | Compound | Optical density at 600 nm (E. coli BL21(DE3)pLysS; 2.5 mM ferulic acid) | Optical density at 600 nm (E. coli BL21(DE3)pLysS; 5 mM ferulic acid) | Optical density at 600 nm ([1]; 2.5 mM ferulic acid) | Optical density at 600 nm ([1]; 5 mM ferulic acid) | Toxicity to the cells (growth rates in exponential growth phase) (E. coli MG1655)
1 | COc1cc(/C=C/C(=O)O)ccc1O [ferulic acid] | 0.680 | 0.370 | 1.410 | 1.340 | 
2 | O=C(O)/C=C/c1ccc(O)cc1 [pHCA, p-coumaric acid] |  |  |  |  | toxic to the cells
3 | O=C(O)/C=C/c1ccc(OS(=O)(=O)O)cc1 [zosteric acid] |  |  |  |  | much less so

From patent publication US10590440B2, “Process for producing a fermentation product from a lignocellulose-containing material” (CysBio ApS, priority 2014, dated 2020)
